The test system of assay [1] is lysophosphatidic acid acyl transferase (LPAAT). Kind of assay: in vitro inhibition of LPAAT in 3T3 Ras-transformed fibroblasts stimulated with IL-1β. The assay is classed as cell-based. On the procedure:
FIG. 17 illustrates a comparison of CT1501R, its S isomer CT1501S, and PTX on in vitro inhibition of lysophosphatidic acid acyl transferase (LPAAT), an enzyme involved in second messenger signaling. […] LPAAT activity was determined in 3T3 Ras-transformed fibroblasts stimulated with IL-1β.
One in vitro assay measures inhibition of the relevant enzymes lysophosphatidic acid acyltransferase (LPAAT) and phosphatidic acid phosphoryl hydrolase (PAPH). The assay involves incubating of target cells with a primary stimulus (e.g., a variety of cytokines, growth factors, oncogene products, putative therapeutic agents, irradiation, viral infection, toxins, bacterial infection and the products thereof, and any stimulus which, if not counteracted, has a deleterious effect on the target cell) in the presence or absence of an inventive compound at varying dosage levels. Target cells include, for example, subcellular entities, such as, microsomes derived from mesenchymal and/or ectodermal cells, particularly microsomes from marrow stromal cells or human or rat mesangial cells; microsomes or synaptosomes derived from brain; plasma membrane-enriched microsomes, plasma membranes derived as described in Bursten et at. (J. Biol. Chem. 226:20732-20743, 1991 ), or detergent-solubilized microsomes; synaptosomes, and membranes or other cell preparations solubilized using, for example, NP-40, Miranal, SDS or other neutral detergents; and detergent-solubilized, recombinant, or further purified preparations of cell proteins, including the proteins LPAAT and/or PAPH. After incubation for short periods of time, cell lipids are extracted and assayed by […] according to standard procedures. Briefly, lipids are extracted using, for example, chloroform:methanol 2:1 (v/v), and the extracts are then subjected to HPLC as described in Bursten and Harris, Biochemistry 30:6195-6203, 1991. A Rainin® mu-Porasil column is used with a 3:4 hexane:propanol organic carrier and a 1-10% water gradient during the first 10 minutes of separation. Detection of the peaks in the elution pattern is by absorption in the range of ultraviolet which detects isolated double bonds. The relevant peaks of unsaturated PA and DAG are shown in the elution pattern. It is important to note that the assay method permits discrimination between various forms of PA and DAG so that those relevant to the pathway affected by the (R) or (S) compounds of the invention can be measured directly. Confirmation of the nature of the acyl substituents of these components is accomplished using fast-atom bombardment mass spectroscopy. Thus, the relevant unsaturated (non-arachidonic) PA and DAG subspecies may be detected. The time periods employed are 5-60 seconds after stimulation with the primary stimulus, such as a cytokine. This technique permits assessment of the levels of various lipid components as a function of time.

For assay [2], the system named is IL-1α release in peritoneal macrophages. Description: IL-1α release in LPS activated PEC (ELISA). It is filed as cell-based, murine. The note with it: Mus musculus, Peritoneal macrophage, at 24 hours after LPS, FIG. 19, read-out: maximum inhibition of IL-1α release. On the procedure:
(§1) Murine peritoneal exudate cell macrophages (PEC) were isolated by perfusion of mouse peritoneum and plated into 96-well trays at 5×10^5 cells per well. Cells were stimulated with 5 μg/ml Salmonella abortus equi -derived endotoxin (LPS; Sigma Chemical Co., L-1887) or […] IL-1α (Genzyme; Cambridge, Mass.) with or without the addition of CT1501R added to the cultures one hour prior to addition of the stimulus. At various times thereafter, supernatants were removed and levels of either TNF-α or IL-1α were assayed using commercial 96-well microtiter immunoassay kits (Genzyme; TNF; Endogen, Boston, Mass.; IL-1α) according to manufacturer's specifications. For the adhesion studies, early passage human umbilical vein endothelial cells (HUVEC) were obtained. from commercial suppliers (Clonetics, San Diego, Calif. or Cell Systems, Seattle, Wash.) and cultured in defined, Hepes buffered, serum free medium (Cell Systems, cat 301-180) supplemented with acidic FGF (Cell Systems cat 401-111). 4000 cells were plated into each well of a 96-well microtiter plate and allowed to incubate for 72 hrs at 37° C. […] After addition of […] Hanks Balanced Salt Solution (HBSS), the microtiter plate was then analyzed on a Millipore Cytofluor fluorescent plate reader (excitation 488 nm; emission 525 nm). […]
For orientation: ELISA stands for enzyme-linked immunosorbent assay.

The test system of another assay is murine B-cell. Description: B-cell proliferation stimulated by anti-mu antibody and/or IL-4. It is filed as cell-based. The note with it: anti-mu antibody crosslinked and/or IL-4, FIG. 2. On the procedure:
A B-cell proliferation assay determines the effect of the inventive compounds on inhibiting proliferation of stimulated B-cells, stimulated by an anti-mu antibody (40 μg/ml), IL-4 or PMA (2.5 nM). Ramos B-cell tumor cells or murine splenocytes can be incubated with a stimulating agent, an inventive compound and tritiated thymidine to measure inhibition of cell proliferation caused by the stimulating agent.

A further assay has as its system HUVEC. Description: adhesion of U937 cells to activated HUVEC. The assay is classed as cell-based, human. The note with it: 250 μM, FIG. 21. On the procedure:
as §1

`C[C@@H](O)CCCCn1c(=O)c2c(ncn2C)n(C)c1=O` [CT1501R, (R)-1-(5-hydroxyhexyl)-3,7-dimethylxanthine]: in assay [1], the “potency relative to the S enantiomer” value is given as “many times more potent than the corresponding S enantiomer” and the “potency relative to the racemic mixture (M1)” value was “two to three time more potent than the racemic mixture”. For the same molecule, the “inhibition of LPAAT enzyme activity” value in assay [1] (3T3 Ras-transformed fibroblasts, IL-1β, FIG. 17) is on record as “significantly inhibited enzyme activity”. Also, the inhibition (commonly how much of the control response was suppressed) at 250 µM in assay [2] was roughly 50%. Besides, the “inhibition of B-cell proliferation” value in the assay on murine B-cell was “inhibited B-cell proliferation”. Moreover, the “adhesiveness of activated HUVEC for U937 cells” value in the assay with HUVEC (1 hour prior to TNF-α, IL-1α or LPS) is “marked suppression in the relative adhesiveness of the activated HUVEC”. Also, the “background attachment of U937 cells to HUVEC” value in the assay on HUVEC (non-activated HUVEC) is reported as “no significant effect on background attachment of U937 cells to HUVEC”.

For the origin of these results see US5567704A, “R-enatiomerically pure hydroxylated xanthine compounds to treat baldness” (priority 1995, dated 1996).
